Data from patent US9434724B2, “Quinuclidines for modulating alpha 7 activity” (priority 2014, dated 2016).
Where a name gives a salt, the structure may show the parent alone. Read-outs that look alike come from different tables or passages of the source.

Key:
Human plasma stability = assay type: in vitro ADME; details: plasma; for % Remaining @ 2 h: 5 μM
Protocol: Protocol 1: Studies were carried out in human plasma. All plasma was obtained from Bioreclamation and collected on sodium heparin. Plasma was adjusted to pH 7.4. A DMSO stock was first prepared for the test compound. An aliquot of the DMSO solution was dosed into 1 mL of plasma, which had been pre-warmed to 37° C., at a final test compound concentration of 1 μM. The vials were kept in a benchtop Thermomixer® for the duration of the experiment. Aliquots (100 μL) were taken at each time point (0, 15, 30, 60, and 120 minutes) and added to 96-well plates which had been pre-filled with 300 μL of acetonitrile. Samples were stored at 4° C. until the end of the experiment. After the final time point was sampled, the plate was mixed and then centrifuged at 3,000 rpm for 10 minutes. Aliquots of the supernatant were removed, diluted 1:1 into distilled water, and analyzed by LC-MS/MS. The peak area response ratio to internal standard (PARR) of the compound at 15, 30, 60 and 120 minutes was compared to the PARR at time 0 to determine the percent of test compound remaining at each time point. Half-lives were calculated using GraphPad software, fitting to a single-phase exponential decay equation.
Protocol 2: Studies were carried out in plasma. Plasma was prepared under approval of IRB and IACUC on sodium heparin. The pH of plasma was monitored and used within the range of pH 7.4 to pH 8.0. DMSO stocks were prepared for the test compounds. Aliquots of the DMSO solutions were diluted to 0.05 mM by 0.05 mM Sodium phosphate buffer with 0.5% BSA. Then 10 μL of 0.05 mM solutions were dosed into 90 μL of plasma in duplicates (n=2), which had been pre-warmed to 37° C., at a final test compound concentration of 5 μM. The plates were kept in a 37° C. water bath for the duration of the experiment. At each time point (0, 5, 15, 30, 45, 60, and 120 minutes), 400 μL of acetonitrile was added into corresponding wells. After the final time point was sampled, the plates were shaken at the vibrator (IKA, MTS 2/4) for 10 min (600 rpm/min) and then centrifuged at 5594 g for 15 min (Thermo Multifuge×3R). Aliquots of the supernatant were removed, diluted 1:1 into distilled water, and analyzed by LC-MS/MS. The peak area response ratio to internal standard (PARR) of the compounds at 5, 15, 30, 45, 60, and 120 minutes was compared to the PARR at time 0 to determine the percent of test compound remaining at each time point. Half-lives were calculated using Excel software, fitting to a single-phase exponential decay equation.

[1] = Metabolic stability assay in rat liver microsomes (RLM); assay type: in vitro ADME; details: 1 μM
Protocol: (§1) Protocol 1: Studies were carried out in human and rat liver microsomes (“HLM” and “RLM,” respectively). Human and rat liver microsomes were purchased from BD Gentest. DMSO stocks were prepared for the test compounds. Aliquots of the DMSO solutions were diluted to 0.5 mM by acetonitrile, then further diluted by liver microsomes/buffer to 1.5 μM. 30 μL of 1.5 μM solutions were mixed with 15 μL of 6 mM NADPH, which had been pre-warmed to 37° C., at a final test compound concentration of 1 μM. The plates were kept in a 37° C. water bath for the duration of the experiment. At each time point (0, 5, 15, 30, 45 minutes), 135 μL of acetonitrile was added into corresponding wells. After the final time point was sampled, the plates were shaken at a vibrator (IKA, MTS 2/4) for 10 min (600 rpm/min) and then centrifuged at 5594 g for 15 min (Thermo Multifuge×3R). Aliquots of the supernatant were removed, diluted 1:1 into distilled water, and analyzed by LC-MS/MS. The peak area response ratio to internal standard (PARR) of the compounds at 5, 15, 30, 45 minutes was compared to the PARR at time 0 to determine the percent of test compound remaining at each time point. Half-lives were calculated using Excel software, fitting to a single-phase exponential decay equation.
(§2) Protocol 2: Studies were carried out in human and rat liver microsomes. Buffer solutions were prepared as follows: Buffer A: 1.0 L of 0.1 M monobasic Potassium Phosphate buffer containing 1.0 mM EDTA; Buffer B: 1.0 L of 0.1 M Dibasic Potassium Phosphate buffer containing 1.0 mM EDTA; Buffer C: 0.1 M Potassium Phosphate buffer, 1.0 mM EDTA, pH 7.4 by titrating 700 mL of buffer B with buffer A while monitoring with a pH meter.
(§3) Reference compound (Ketanserin) and test compound spiking solutions were prepared as follows: 500 μM spiking solution: add 10 μL of 10 mM DMSO stock solution into 190 μL ACN; 1.5 μM spiking solution in microsomes (0.75 mg/mL): add 1.5 μL of 500 μM spiking solution and 18.75 μL of 20 mg/mL liver microsomes into 479.75 μL of Buffer C.
(§4) NADPH stock solution (6 mM) was prepared by dissolving NADPH into buffer C.
(§5) Assay procedure: 30 μL of 1.5 μM spiking solution containing 0.75 mg/mL microsomes solution was dispensed to the wells designated for […]. The plate was pre-incubated at 37° C. for 10 minutes. 15 μL of NADPH stock solution (6 mM) was added to the wells designated as Time 45, and the timer was started. At 30 mM, 15 mM, and 5 mM, 15 μL NADPH stock solution (6 mM) was added to the wells, respectively. At the end of incubation (0 mM), 135 μL of ACN containing IS was added to all the wells. Then 15 μL of NADPH stock solution (6 mM) was added to the wells designated as Time 0. After quenching, the reaction mixtures were centrifuged at 3220 g for […]. Following centrifugation, 50 μL of the supernatant was transferred from each well into a 96-well sample plate containing 50 μL of ultra-pure water (Millipore) for LC/MS analysis. The peak area response (PARR) ratio to internal standard of the compounds at 5, 15, 30, and 45 minutes was compared to the PARR at time 0 to determine the percent of test compound remaining at each time point. Half-lives were calculated using Excel software, fitting to a single-phase exponential decay equation.

[2] = molecular target: T1, rat brain nicotinic receptor (α7 NAChR) (Rattus norvegicus (Rat), UniProt Q05941); assay type: binding; details: Protocol No. 2; [3H] α-Bungarotoxin 0.4 nM, rat brain P2 membrane
[3] = Metabolic stability assay in human liver microsomes (HLM); assay type: in vitro ADME; details: 1 μM
Protocol: as §1, §2, §3, §4, §5

CYP2C9 = CYP2C9 (Homo sapiens (Human), UniProt P11712); assay: Cytochrome P450 inhibition in human liver microsomes, CYP2C9; details: read-out: 2C9 IC50, Protocol 1
CYP1A2 = CYP1A2 (Homo sapiens (Human), UniProt P05177); assay: Cytochrome P450 inhibition in human liver microsomes, CYP1A2
[4] = molecular target: T1, rat brain nicotinic receptor (α7 NAChR); assay type: binding
CYP2C19 [5] = molecular target: T2, CYP2C19 (Homo sapiens (Human), UniProt P33261); assay: Cytochrome P450 inhibition in human liver microsomes, CYP2C19; details: read-out: 2C19 IC50, Protocol 1
CYP3A4 = CYP3A4 (Homo sapiens (Human), UniProt P08684); assay: Cytochrome P450 inhibition in human liver microsomes, CYP3A4
CYP2C19 [6] = molecular target: T2, CYP2C19; details: microsomes
[7] = Protocol No. 1, rat liver microsomes
[8] = Protocol No. 1, human liver microsomes
[9] = read-out: 3A4 IC50 (Midazolam), substrate midazolam, Protocol 1
[10] = read-out: 3A4 IC50 (Testosterone), substrate testosterone, Protocol 1

T1 sequence (Q05941 23-502 limits assumed): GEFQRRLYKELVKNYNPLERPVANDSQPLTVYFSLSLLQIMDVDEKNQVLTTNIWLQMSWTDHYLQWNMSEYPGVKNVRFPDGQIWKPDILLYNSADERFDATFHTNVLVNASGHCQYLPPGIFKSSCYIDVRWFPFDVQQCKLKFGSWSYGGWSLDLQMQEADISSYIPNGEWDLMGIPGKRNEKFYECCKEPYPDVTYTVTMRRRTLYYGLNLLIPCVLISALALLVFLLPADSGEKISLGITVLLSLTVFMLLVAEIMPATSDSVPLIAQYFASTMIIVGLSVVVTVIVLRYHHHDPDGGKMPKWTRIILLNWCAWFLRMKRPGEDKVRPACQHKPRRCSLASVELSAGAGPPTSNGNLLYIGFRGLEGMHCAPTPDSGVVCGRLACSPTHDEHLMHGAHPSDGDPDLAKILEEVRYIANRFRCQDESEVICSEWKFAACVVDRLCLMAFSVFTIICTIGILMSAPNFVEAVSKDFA
Sequence of CYP3A4 (P08684 whole entry): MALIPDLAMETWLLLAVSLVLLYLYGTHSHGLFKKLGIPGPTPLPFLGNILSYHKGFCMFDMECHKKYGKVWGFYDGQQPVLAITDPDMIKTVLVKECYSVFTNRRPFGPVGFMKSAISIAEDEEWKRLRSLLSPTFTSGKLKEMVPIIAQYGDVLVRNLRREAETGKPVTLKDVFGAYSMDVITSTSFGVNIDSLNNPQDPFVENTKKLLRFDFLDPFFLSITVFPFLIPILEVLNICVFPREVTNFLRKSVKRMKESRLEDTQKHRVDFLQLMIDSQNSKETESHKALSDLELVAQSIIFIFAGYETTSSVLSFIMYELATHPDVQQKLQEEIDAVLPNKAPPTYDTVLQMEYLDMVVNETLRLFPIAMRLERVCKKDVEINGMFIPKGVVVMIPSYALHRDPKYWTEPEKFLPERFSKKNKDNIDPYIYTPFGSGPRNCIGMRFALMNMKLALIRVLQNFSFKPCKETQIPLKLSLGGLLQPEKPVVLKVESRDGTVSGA
T2 sequence (P33261 whole entry): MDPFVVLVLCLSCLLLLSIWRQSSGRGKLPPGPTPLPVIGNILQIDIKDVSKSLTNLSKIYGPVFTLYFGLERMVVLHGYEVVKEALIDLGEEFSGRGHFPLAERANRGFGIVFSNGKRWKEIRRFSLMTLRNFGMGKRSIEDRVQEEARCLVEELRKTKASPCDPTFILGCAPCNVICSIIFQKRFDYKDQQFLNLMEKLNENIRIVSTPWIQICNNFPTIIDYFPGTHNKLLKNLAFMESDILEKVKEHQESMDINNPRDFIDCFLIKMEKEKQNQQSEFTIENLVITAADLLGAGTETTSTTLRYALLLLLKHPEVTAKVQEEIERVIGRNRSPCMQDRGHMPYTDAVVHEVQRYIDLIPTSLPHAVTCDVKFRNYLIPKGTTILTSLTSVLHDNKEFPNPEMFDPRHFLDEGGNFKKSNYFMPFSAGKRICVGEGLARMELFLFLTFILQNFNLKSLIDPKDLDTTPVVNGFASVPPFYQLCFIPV
Sequence of CYP1A2 (P05177 whole entry): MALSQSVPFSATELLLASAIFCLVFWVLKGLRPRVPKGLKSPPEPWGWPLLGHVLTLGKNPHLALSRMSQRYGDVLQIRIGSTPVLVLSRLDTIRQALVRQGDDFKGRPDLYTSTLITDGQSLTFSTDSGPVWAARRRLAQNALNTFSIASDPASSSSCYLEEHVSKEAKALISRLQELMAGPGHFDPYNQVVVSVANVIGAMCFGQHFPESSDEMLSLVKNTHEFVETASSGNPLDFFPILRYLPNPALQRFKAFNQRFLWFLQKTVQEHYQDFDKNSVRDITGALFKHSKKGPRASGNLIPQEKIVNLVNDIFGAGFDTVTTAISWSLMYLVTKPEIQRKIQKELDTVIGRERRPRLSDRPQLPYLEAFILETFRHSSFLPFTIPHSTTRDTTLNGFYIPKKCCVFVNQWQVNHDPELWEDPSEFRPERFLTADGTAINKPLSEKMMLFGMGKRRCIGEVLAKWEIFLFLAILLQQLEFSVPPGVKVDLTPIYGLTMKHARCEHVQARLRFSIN
Sequence of CYP2C9 (P11712 whole entry): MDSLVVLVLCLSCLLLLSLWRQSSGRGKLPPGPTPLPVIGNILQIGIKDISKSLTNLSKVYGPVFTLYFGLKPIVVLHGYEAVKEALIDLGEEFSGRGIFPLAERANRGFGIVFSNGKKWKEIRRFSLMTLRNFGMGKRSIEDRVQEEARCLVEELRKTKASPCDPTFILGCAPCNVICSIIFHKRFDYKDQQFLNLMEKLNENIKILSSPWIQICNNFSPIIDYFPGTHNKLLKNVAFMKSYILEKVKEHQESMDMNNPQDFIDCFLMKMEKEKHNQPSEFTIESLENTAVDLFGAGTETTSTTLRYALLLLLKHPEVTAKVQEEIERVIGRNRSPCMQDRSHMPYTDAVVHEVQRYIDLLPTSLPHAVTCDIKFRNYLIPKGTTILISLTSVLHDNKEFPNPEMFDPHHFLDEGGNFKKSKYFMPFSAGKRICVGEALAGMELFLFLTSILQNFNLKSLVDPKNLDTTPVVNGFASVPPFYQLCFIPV

SMILES | % Remaining @ 2 h (Human plasma stability; human, 2 h) [%] | RLM ([1]; rat, microsomes) [mL/min/kg] | IC50 [2] [µM] | Ki [2] [µM] | HLM ([3]; human, microsomes) [mL/min/kg] | IC50 [4] [µM] | Ki [4] [µM] | further results
COc1cc(C)cc2[nH]cc(C(=O)OCC34CCN(CC3)CC4)c12 [Compound 85, quinuclidin-4-ylmethyl 4-methoxy-6-methyl-1H-indole-3-carboxylate] | 27.28 | 59.67 | 0.18 | 0.357 | 8.18 | – | – | –
Cc1cc(OC(=O)C(C)(C)C)cc2[nH]cc(C(=O)OCC34CCN(CC3)CC4)c12 [Compound 89, quinuclidin-4-ylmethyl 4-methyl-6-(pivaloyloxy)-1H-indole-3-carboxylate] | 77.23 | 1154.15 | 1.07 | 2.13 | 347.66 | – | – | –
Cl.O=C(OCC12CCN(CC1)CC2)c1c[nH]c2cc(C(F)(F)F)ccc12 [Compound 90, quinuclidin-4-ylmethyl 6-(trifluoromethyl)-1H-indole-3-carboxylate] | – | – | > 3 | > 3 | – | – | – | % Remaining @ 2 h (Human plasma stability; Protocol No. 2, 37° C.): 63.18%; RLM [1, 7]: 72.22 mL/min/kg; HLM [3, 8]: 5.21 mL/min/kg
Cc1c(OCC(F)(F)F)ccc2[nH]cc(C(=O)OCC34CCN(CC3)CC4)c12 [Compound 94, quinuclidin-4-ylmethyl 4-methyl-5-(2,2,2-trifluoroethoxy)-1H-indole-3-carboxylate] | 76.38 | 26.52 | 0.162 | 0.23 | 2.62 | – | – | –
Cc1c(F)ccc2[nH]cc(C(=O)OCC34CCN(CC3)CC4)c12 [Compound 43, quinuclidin-4-ylmethyl 5-fluoro-4-methyl-1H-indole-3-carboxylate] | 112.99 | 469.04 | – | – | 5.57 | 0.207 | 0.177 | T1/2 (Human plasma stability; human): ∞; IC50 (CYP2C9): > 10 µM; IC50 (CYP1A2; read-out: 1A2 IC50, Protocol 1): > 10 µM; IC50 (CYP2C19 [5]): > 10 µM; IC50 (CYP3A4; [9]): > 10 µM; IC50 (CYP3A4; [10]): > 10 µM
Cc1c(OCCO)ccc2[nH]cc(C(=O)OCC34CCN(CC3)CC4)c12 [Compound 95, quinuclidin-4-ylmethyl 5-(2-hydroxyethoxy)-4-methyl-1H-indole-3-carboxylate, 2,2,2-trifluoroacetate salt] | 73.17 | 17.75 | 0.213 | 0.414 | 2.86 | – | – | –
O=C(OCC12CCN(CC1)CC2)c1c[nH]c2ccc(Cl)cc12 [Compound 2, quinuclidin-4-ylmethyl 5-chloro-1H-indole-3-carboxylate] | – | – | – | – | – | 0.328 | 0.287 | IC50 (CYP1A2; read-out: 1A2 IC50, Protocol 2): > 10 µM; RLM ([1]; rat, microsomes, pH 7.4): 127.44 mL/min/kg; IC50 (CYP2C19 [6]): > 10 µM; HLM ([3]; human, microsomes, pH 7.4): <13.608 mL/min/kg
O=C(OCC12CCN(CC1)CC2)c1c[nH]c2ccc(Cl)cc12 [Compound 27, quinuclidin-4-ylmethyl 5-chloro-1H-indole-3-carboxylate] | – | – | – | – | – | 0.282 | 0.247 | IC50 (CYP1A2; read-out: 1A2 IC50, Protocol 2): > 10 µM; RLM ([1]; rat, microsomes, pH 7.4): 106.429 mL/min/kg; IC50 (CYP2C19 [6]): > 10 µM; HLM ([3]; human, microsomes, pH 7.4): <13.608 mL/min/kg
Cc1cc2c(C(=O)OCC34CCN(CC3)CC4)c[nH]c2cc1C#N [Compound 84, quinuclidin-4-ylmethyl 6-cyano-5-methyl-1H-indole-3-carboxylate] | – | – | 3.34 | 7.18 | – | – | – | % Remaining @ 2 h (Human plasma stability; Protocol No. 2, 37° C.): 59.79%; RLM [1, 7]: 116.21 mL/min/kg; HLM [3, 8]: 10.24 mL/min/kg
CC(=O)Nc1cc(C)c2c(C(=O)OCC34CCN(CC3)CC4)c[nH]c2c1 [Compound 93, quinuclidin-4-ylmethyl 6-acetamido-4-methyl-1H-indole-3-carboxylate] | 81.38 | 12.66 | 1.31 | 2.87 | 12.96 | – | – | –
COc1cc2[nH]cc(C(=O)OCC34CCN(CC3)CC4)c2cc1OC [Compound 87, quinuclidin-4-ylmethyl 5,6-dimethoxy-1H-indole-3-carboxylate] | – | – | 1.56 | 2.71 | – | – | – | % Remaining @ 2 h (Human plasma stability; Protocol No. 2, 37° C.): 55.42%; RLM [1, 7]: 257.71 mL/min/kg; HLM [3, 8]: 0.5 mL/min/kg
Cc1cc(F)cc2[nH]cc(C(=O)OCC34CCN(CC3)CC4)c12 [Compound 44, quinuclidin-4-ylmethyl 6-fluoro-4-methyl-1H-indole-3-carboxylate] | 95.72 | 531.35 | – | – | 3.5 | 0.48 | 0.412 | T1/2 (Human plasma stability; human): ∞; IC50 (CYP2C9): > 10 µM; IC50 (CYP1A2; read-out: 1A2 IC50, Protocol 1): > 10 µM; IC50 (CYP2C19 [5]): > 10 µM; IC50 (CYP3A4; [9]): > 10 µM; IC50 (CYP3A4; [10]): > 10 µM
